The source of these data is patent US5260309A, “4,5,6,11-tetrahydrobenzo [6,7] cycloocta [1,2-b]thiophen-6,11-imines and 6,11-dihydrobenzo [6,7] cycloocta [1,2-b] thiophen-6,11-imines” (Pfizer Inc., priority 1992, dated 1993).

One assay concerns P2 membranes from rat forebrain (3H-TCP binding). Description: 3H-TCP binding assay (displacement of 3H-TCP from P2 membranes from rat forebrain). The following applies: activity ratio (+)-enantiomer vs (-)-enantiomer. As for the experimental part: P2 membranes from rat forebrain were suspended in 5 mM tris(hydroxymethyl)aminomethane hydrochloride buffer (pH 7.4). A solution of the test compound in H2 O or DMSO/H2 O was added followed by a solution of ^3 H-TCP The mixture was incubated for 20 minutes at 30° C. and then injected onto a glass fiber filter. The filters were washed with cold buffer and placed in vials for subsequent liquid scintillation spectrometry. IC50 were calculated from the amount of tritium label retained on the filters.
On to `CC12NC(CCc3ccsc31)c1ccccc12` (single isomer, unassigned; (+)) [(+)-enantiomer, (+)-11-methyl-4,5,6,11-tetrahydrobenzo[6,7]cycloocta[1,2-b]-thiophen-6,11-imine], for which the “times as active as the (-)-enantiomer in the 3H-TCP binding assay” value is listed as “approximately eight”.

Staying with this assay, now noted: rat forebrain P2 membranes, pH 7.4, 20 minutes at 30° C.; upper bound stated for the group in micromolar.
As usually defined, the IC50 is the concentration that inhibits the measured activity by half. `CC12NC(CCc3cc(Br)sc31)c1ccccc12` (stereo not drawn) [15 (free amine), 2-bromo-11-methyl-4,5,6,11-tetrahydrobenzo[6,7]cycloocta[1,2-b]thiophen-6,11-imine] returned an IC50 of at most 2000 nM.

Molecule `c1ccc2c(c1)C1CCc3ccsc3C2N1` (stereo not drawn) [Example 4, 4,5,6,11-Tetrahydrobenzo[6,7]cycloocta[1,2-b]thiophen-6,11-imine] had an IC50 of at most 2000 nM.

`CSc1cc2c(s1)C1(C)NC(CC2)c2ccccc21` (stereo not drawn) [Example 14, 2-Methylthio-11-methyl-4,5,6,11-tetrahydrobenzo[6,7]-cycloocta[1,2-b]thiophen-6,11-imine] displayed an IC50 of at most 2000 nM.

`CC12NC(CCc3cc(Cl)sc31)c1ccccc12` (stereo not drawn) [Example 16, 2-Chloro-11-methyl-4,5,6,11-tetrahydrobenzo[6,7]-cycloocta[1,2-b]thiophen-6,11-imine] displayed an IC50 of at most 2000 nM.

Turning to `CC12NC(C=Cc3ccsc31)c1ccccc12` (stereo not drawn) [Example 18, 11-Methyl-6,11-dihydrobenzo[6,7]cycloocta[1,2-b]thiophen-6,11-imine], the IC50 is at most 2000 nM.

The assay is the same for the next values; noted with them: rat forebrain P2 membranes, pH 7.4, 20 minutes at 30° C.; upper bound stated for the group in nanomolar.
For `CC12NC(CCc3ccsc31)c1ccccc12` (stereo not drawn) [Example 9, 11-Methyl-4,5,6,11-tetrahydrobenzo[6,7]cycloocta-[1,2-b]thiophen-6,11-imine], the IC50 is at most 40 nM.

As to `CC12NC(CCc3ccsc31)c1cc(F)ccc12` (stereo not drawn) [Example 22, 8-Fluoro-11-methyl-4,5,6,11-tetrahydrobenzo[6,7]-cycloocta[1,2-b]thiophen-6,11-imine], the IC50 was at most 40 nM.

`Cc1ccc2c(c1)C1CCc3ccsc3C2(C)N1` (stereo not drawn) [Example 26, 8.11-Dimethyl-4,5,6,11-tetrahydrobenzo[6,7]cycloocta-[1,2-b]thiophen-6,11-imine] gave an IC50 of at most 40 nM.
